Holding throughout (format): cell-based
In one assay the target is T1, human TLR7 (Homo sapiens, UniProt Q9NYK1).
T1 construct: host or cells: HEK-Blue cells
T1 sequence (Q9NYK1 27-1049): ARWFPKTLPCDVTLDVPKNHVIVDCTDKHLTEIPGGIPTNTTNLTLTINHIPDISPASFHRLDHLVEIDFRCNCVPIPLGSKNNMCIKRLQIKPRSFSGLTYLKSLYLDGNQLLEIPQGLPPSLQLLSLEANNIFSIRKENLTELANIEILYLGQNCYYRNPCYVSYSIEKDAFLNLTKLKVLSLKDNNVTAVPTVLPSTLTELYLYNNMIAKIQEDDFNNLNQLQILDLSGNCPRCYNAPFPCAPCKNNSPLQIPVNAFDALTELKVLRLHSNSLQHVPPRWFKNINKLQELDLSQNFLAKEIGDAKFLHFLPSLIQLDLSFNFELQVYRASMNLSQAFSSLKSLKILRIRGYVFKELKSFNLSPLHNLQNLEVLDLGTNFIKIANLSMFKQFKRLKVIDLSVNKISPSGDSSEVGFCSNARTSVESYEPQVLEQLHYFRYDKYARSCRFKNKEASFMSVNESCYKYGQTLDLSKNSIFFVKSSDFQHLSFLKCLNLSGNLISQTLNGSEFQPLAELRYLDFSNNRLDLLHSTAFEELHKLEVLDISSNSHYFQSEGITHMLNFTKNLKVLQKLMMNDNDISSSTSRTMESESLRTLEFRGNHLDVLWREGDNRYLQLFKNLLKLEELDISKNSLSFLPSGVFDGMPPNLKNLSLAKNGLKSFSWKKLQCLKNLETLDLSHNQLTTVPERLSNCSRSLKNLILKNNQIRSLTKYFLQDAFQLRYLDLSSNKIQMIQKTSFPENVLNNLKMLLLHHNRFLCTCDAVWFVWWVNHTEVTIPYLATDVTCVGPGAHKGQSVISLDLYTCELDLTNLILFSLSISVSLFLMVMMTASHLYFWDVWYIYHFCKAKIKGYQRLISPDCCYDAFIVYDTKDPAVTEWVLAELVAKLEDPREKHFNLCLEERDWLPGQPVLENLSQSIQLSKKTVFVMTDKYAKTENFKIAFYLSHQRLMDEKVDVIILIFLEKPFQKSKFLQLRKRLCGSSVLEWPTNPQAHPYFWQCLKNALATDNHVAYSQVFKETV
Nature of the assay: TLR7 inhibition reporter assay (HEK-Blue cells, SEAP reporter, gardiquimod stimulation). As to conditions: HEK-Blue cells overexpressing human TLR7, SEAP reporter, gardiquimod 7.5 μM. The gist of the method: (§1)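 SEAP readout after 22 h agonist exposure at 37 °C; final agonist levels were 7.5 μM gardiquimod (TLR7), 15.9 μM R848 (TLR8) and 5 nM ODN2006 (TLR9). Inhibitors, spanning 0.05 nM to 50 μM final, were applied 30 min beforehand.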
On the technique in general: Reporter assays use an easily measured gene product as a stand-in for the process of interest.

A further assay deals with T2, human TLR8 (Homo sapiens, UniProt Q9NR97).
T2 construct: host or cells: HEK-Blue cells
T2 sequence (Q9NR97 27-1041): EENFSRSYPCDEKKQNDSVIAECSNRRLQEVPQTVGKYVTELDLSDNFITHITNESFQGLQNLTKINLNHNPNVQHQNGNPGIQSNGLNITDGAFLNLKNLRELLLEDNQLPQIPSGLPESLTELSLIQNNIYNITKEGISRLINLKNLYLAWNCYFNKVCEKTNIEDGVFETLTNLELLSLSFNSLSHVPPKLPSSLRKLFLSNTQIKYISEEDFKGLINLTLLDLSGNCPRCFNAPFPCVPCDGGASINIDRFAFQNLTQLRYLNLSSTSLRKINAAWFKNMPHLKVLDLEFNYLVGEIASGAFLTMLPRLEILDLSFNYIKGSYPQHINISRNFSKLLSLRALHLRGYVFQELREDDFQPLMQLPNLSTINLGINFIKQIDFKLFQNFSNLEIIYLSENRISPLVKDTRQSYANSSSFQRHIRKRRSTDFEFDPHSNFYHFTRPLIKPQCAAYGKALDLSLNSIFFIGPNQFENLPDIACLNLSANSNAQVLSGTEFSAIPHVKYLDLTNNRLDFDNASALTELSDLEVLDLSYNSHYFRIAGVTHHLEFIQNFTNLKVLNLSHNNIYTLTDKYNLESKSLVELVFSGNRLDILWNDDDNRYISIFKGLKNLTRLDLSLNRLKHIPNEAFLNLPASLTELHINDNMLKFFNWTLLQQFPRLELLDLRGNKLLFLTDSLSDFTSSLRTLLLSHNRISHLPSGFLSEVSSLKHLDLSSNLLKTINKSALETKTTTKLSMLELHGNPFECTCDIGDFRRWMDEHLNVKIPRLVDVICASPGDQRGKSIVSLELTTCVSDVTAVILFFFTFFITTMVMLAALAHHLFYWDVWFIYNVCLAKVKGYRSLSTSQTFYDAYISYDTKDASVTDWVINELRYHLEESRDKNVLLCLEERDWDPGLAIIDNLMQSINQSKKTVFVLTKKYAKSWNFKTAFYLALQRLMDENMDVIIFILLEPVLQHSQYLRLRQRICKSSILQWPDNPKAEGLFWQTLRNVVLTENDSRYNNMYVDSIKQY
Nature of the assay: TLR8 inhibition reporter assay (HEK-Blue cells, SEAP reporter, R848 stimulation). Particulars: HEK-Blue cells overexpressing human TLR8, SEAP reporter, R848 15.9 μM. An outline of the steps:
as §1

For another assay, the target named is T3, human TLR9 (Homo sapiens, UniProt Q9NR96).
T3 construct: host or cells: HEK-Blue cells
T3 sequence (Q9NR96 26-1032): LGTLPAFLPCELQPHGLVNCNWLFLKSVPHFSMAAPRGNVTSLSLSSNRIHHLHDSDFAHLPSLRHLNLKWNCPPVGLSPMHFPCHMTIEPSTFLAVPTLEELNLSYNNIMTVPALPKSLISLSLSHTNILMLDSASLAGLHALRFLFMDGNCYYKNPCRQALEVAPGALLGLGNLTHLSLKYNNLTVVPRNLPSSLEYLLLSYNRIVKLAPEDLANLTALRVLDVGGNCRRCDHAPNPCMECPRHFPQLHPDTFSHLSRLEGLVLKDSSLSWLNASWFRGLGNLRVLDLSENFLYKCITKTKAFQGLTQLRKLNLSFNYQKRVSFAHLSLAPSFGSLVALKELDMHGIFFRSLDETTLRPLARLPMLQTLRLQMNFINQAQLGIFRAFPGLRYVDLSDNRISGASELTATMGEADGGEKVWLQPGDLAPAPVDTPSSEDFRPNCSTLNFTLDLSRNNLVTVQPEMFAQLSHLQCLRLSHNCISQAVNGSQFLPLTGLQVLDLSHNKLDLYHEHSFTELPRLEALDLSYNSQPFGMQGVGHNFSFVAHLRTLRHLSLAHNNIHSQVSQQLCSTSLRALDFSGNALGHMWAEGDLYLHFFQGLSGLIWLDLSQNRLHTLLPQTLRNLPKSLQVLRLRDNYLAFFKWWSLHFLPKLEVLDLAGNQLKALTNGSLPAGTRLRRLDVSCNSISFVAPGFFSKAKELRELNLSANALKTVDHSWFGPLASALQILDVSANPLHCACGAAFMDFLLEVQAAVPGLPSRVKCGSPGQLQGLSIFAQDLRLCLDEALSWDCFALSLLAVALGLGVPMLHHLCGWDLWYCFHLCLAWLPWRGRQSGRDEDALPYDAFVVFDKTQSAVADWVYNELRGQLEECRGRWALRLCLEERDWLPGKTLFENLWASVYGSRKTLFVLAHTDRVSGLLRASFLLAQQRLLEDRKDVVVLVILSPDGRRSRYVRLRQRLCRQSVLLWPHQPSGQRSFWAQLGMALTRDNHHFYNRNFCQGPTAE
Nature of the assay: TLR9 inhibition reporter assay (HEK-Blue cells, SEAP reporter, ODN2006 stimulation). As to conditions: HEK-Blue cells overexpressing human TLR9, SEAP reporter, ODN2006 5 nM. The gist of the method:
as §1

With `CNC(=O)CN1CC(c2ccc3[nH]c(-c4cc(C)c5ncnn5c4)c(C(C)C)c3c2)C1` [Example 260, 2-(3-(3-isopropyl-2-(8-methyl-[1,2,4]triazolo[1,5-a]pyridin-6-yl)-1H-indol-5-yl)azetidin-1-yl)-N-methylacetamide], the IC50 on human TLR7 stood at 2 nM; against human TLR8, 3.9 nM; on human TLR9 it was 5250 nM.

For the compound `Cc1cc(-c2[nH]c3ccc(C4CN(CC(=O)N(C)C)C4)cc3c2C(C)C)cn2ncnc12` [Example 261], the IC50 on human TLR7 amounted to 4 nM; on human TLR8, 11 nM; at human TLR9 it was 3320 nM.

As for `COc1cc(-c2[nH]c3ccc(C4CN(CC(=O)N(C)C)C4)cc3c2C(C)C)cn2ncnc12` [Example 262], the results for the IC50 against human TLR7, at human TLR8 and against human TLR9 were 618 nM, 66 nM and 22900 nM, respectively.

Consider `CNC(=O)CN1CC(c2ccc3[nH]c(-c4cc(OC)c5ncnn5c4)c(C(C)C)c3c2)C1` [Example 263], for which the 50% inhibitory concentration (IC50) amounted to 2 nM on human TLR7, 4 nM on human TLR8 and 3620 nM against human TLR9.

Turning to `Cc1cc(-c2[nH]c3ccc(C4CN(CCS(C)(=O)=O)C4)cc3c2C(C)C)cn2ncnc12` [Example 264], the IC50 was 3 nM at human TLR7, 19 nM against human TLR8 and 8170 nM against human TLR9.

With `COc1cc(-c2[nH]c3ccc(C4CN(CCS(C)(=O)=O)C4)cc3c2C(C)C)cn2ncnc12` [Example 265], the IC50 is 1 nM at human TLR7, 2.9 nM at human TLR8 and 3420 nM against human TLR9.

As for `Cc1cc(-c2[nH]c3ccc(C4CN(C(=O)CN(C)C)C4)cc3c2C(C)C)cn2ncnc12` [Example 266, 2-(dimethylamino)-1-(3-(3-isopropyl-2-(8-methyl-[1,2,4]triazolo[1,5-a]pyridin-6-yl)-1H-indol-5-yl)azetidin-1-yl)ethan-1-one], the values for the IC50 against human TLR7, on human TLR8 and on human TLR9 were 0.31 nM, 2.9 nM and 1450 nM, respectively.

`CNCC(=O)N1CC(c2ccc3[nH]c(-c4cc(C)c5ncnn5c4)c(C(C)C)c3c2)C1` [Example 267, 1-(3-(3-isopropyl-2-(8-methyl-[1,2,4]triazolo[1,5-a]pyridin-6-yl)-1H-indol-5-yl)azetidin-1-yl)-2-(methylamino)ethan-1-one]: the IC50 came to 0.96 nM at human TLR7, 5.5 nM on human TLR8 and 2000 nM against human TLR9.

In the case of `CNCC(=O)N1CC(c2ccc3[nH]c(-c4cc(OC)c5ncnn5c4)c(C(C)C)c3c2)C1` [Example 268], the IC50 on human TLR7 is 0.72 nM; against human TLR8, 5.9 nM; at human TLR9 it was 396 nM.

Turning to `Cc1cc(-c2[nH]c3ccc(C4CN(C5CCOC(C)(C)C5)C4)cc3c2C(C)C)cn2ncnc12` (stereo not drawn) [Example 269, 6-(5-(1-(2,2-dimethyltetrahydro-2H-pyran-4-yl)azetidin-3-yl)-3-isopropyl-1H-indol-2-yl)-8-methyl-[1,2,4]triazolo[1,5-a]pyridine], the IC50 at human TLR7 is 5 nM; at human TLR8, 8.3 nM; against human TLR9 it was 3670 nM.

Consider `Cc1cc(-c2[nH]c3ccc(C4CN(C5CCS(=O)(=O)CC5)C4)cc3c2C(C)C)cc(C)n1` [Example 270], for which the IC50 at human TLR7 is 14 nM; against human TLR8, 20 nM; on human TLR9, 888 nM.

`Cc1cc(-c2[nH]c3ccc(C4CN(C5COC5)C4)cc3c2C(C)C)cn2ncnc12` [Example 271]: the IC50 on human TLR7 came out at 5 nM; at human TLR8, 22 nM; against human TLR9 it was 29100 nM.

In the case of `COc1cc(-c2[nH]c3ccc(C4CN(C(C)C)C4)cc3c2C(C)C)cn2ncnc12` [Example 272], the IC50 worked out at 0.84 nM against human TLR7, 2.1 nM on human TLR8 and 1310 nM against human TLR9.

Regarding `COc1cc(-c2[nH]c3ccc(C4CN(C)C4)cc3c2C(C)C)cn2ncnc12` [Example 273], the IC50 against human TLR7 turned out to be 28 nM; on human TLR8, 97 nM; against human TLR9, 5250 nM.

With `COc1cc(-c2[nH]c3ccc(C4CN(C5COC5)C4)cc3c2C(C)C)cn2ncnc12` [Example 274], the IC50 on human TLR7 was 1 nM; against human TLR8, 2.7 nM; on human TLR9 it was 3880 nM.

On to `COc1ccc(-c2[nH]c3ccc(C4CCC5CC(C4)N5)cc3c2C(C)C)cc1OC` (stereo not drawn) [Example 279, 3-(2-(3.4-dimethoxyphenyl)-3-isopropyl-1H-indol-5-yl)-7-azabicyclo[4.1.1]octane], for which the IC50 is 37 nM on human TLR7, 73 nM on human TLR8 and 3130 nM at human TLR9.

For the compound `Cc1cc(-c2[nH]c3ccc(C4CNCCO4)cc3c2C(C)C)cn2ncnc12` (stereo not drawn) [Example 281, 2-(3-isopropyl-2-(8-methyl-[1,2,4]triazolo[1,5-a]pyridin-6-yl)-1H-indol-5-yl)morpholine], the IC50 at human TLR7 is 0.38 nM; against human TLR8, 1.1 nM; at human TLR9, 4020 nM.

For `Cc1cc(-c2[nH]c3ccc(C4CNCCO4)cc3c2C(C)C)cn2ncnc12` (stereo not drawn) [Example 282], the IC50 on human TLR7 was 0.66 nM; at human TLR8, 1 nM; on human TLR9, 3800 nM.

The term IC50 denotes the concentration that gives 50% inhibition. Low values mean higher potency, high ones lower potency.
